Measured values from paper PMC10526274, “Epithelial-Immune Cell Crosstalk Determines the Activation of Immune Cells In Vitro by the Human Cathelicidin LL-37 at Low Physiological Concentrations” (Biomolecules, 2023).
“And” between values parts separate entries of the source, which are not always exact repeats. Equal values may be shown once.

Tested on: Caco-2/NKT cell co-culture
Assay: Multiplex xMAP cytokine levels, Caco-2/NKT co-culture stimulated with LL-37
Type: cell-based, human
Conditions: NKT/Caco-2 co-culture, 1 µM LL-37, 24 h, n=2
Procedure: Caco-2 cell line (ATCC HTB-37) was cultured in a humidified CO2-incubator (5% CO2, 37 °C) in the complete DMEM/F12 (1:1) medium (Gibco, Waltham, MA, USA) containing 10% fetal bovine serum (FBS, Gibco) and 1X antibiotic–antimycotic solution (Gibco). To stabilize the cell phenotype, Caco-2 cells have been subcultivated three times before seeding on the filter supports. Then, Caco-2 cells were seeded at a density of 2 × 10^5 cells/cm^2 onto 24-well Millicell cell culture inserts (PC, 0.4-μm pore size, 0.6 cm^2 surface area, cat. #PIHP01250) (Millipore, Burlington, MA, USA), precoated with 0.2% bovine gelatin (Sigma-Aldrich, Saint Louis, MO, USA). After seeding, Caco-2 cells were grown in the same complete medium with re-feeding every 2–3 days until polarization of the monolayer occurred. The functional polarity of the monolayers was developed when transepithelial electrical resistance (TEER) between the apical and basolateral surfaces of the monolayers reached […] as measured by the electrical resistance system Millicell-ERS Voltohmmeter (Millipore, Burlington, MA, USA). Grown cell monolayers were used in transport and cytokine production experiments between the 21st and 29th days.
NKT cells (CD3^+CD56^+) were isolated from PBMCs using the FACSVantageDiVa cell sorter (Becton Dickinson, Franklin Lakes, NJ, USA), equipped with 405, 488, and 643 nm lasers (Supporting Materials, Figure S1). PBMCs were re-suspended in the FACS buffer (PBS containing 0.5% BSA and 2 mM EDTA) and labeled with monoclonal mouse anti-human CD3-APC (clone UCHT1, Beckman Coulter, Pasadena, CA, USA) and mouse anti-human CD56-PE/Cy7 (clone N901, Beckman Coulter) antibodies to isolate NKT cells (CD3^+CD56^+).
Sorted NKT cells were expanded by stimulation with Dynabead Human T-Expander CD3/CD28 magnetic beads (Gibco) in RPMI-1640 medium containing 10% FBS, 1X antibiotic–antimycotic solution, 100 U/mL IL-2 (Gibco), and 50 ng/mL IL-7 (Sci-Store). CD3/CD28 magnetic beads were subsequently removed with a magnet. Expanded NKT cells were washed out of the cytokines and cryopreserved.
Primary blood monocytes, moDCs, and NKT cells were seeded in 600 µL of complete RPMI-1640 with 10% Human AB serum (Capricorn Scientific, Ebsdorfergrund, Germany) and supplemented with 1X antibiotic–antimycotic solution into the wells of 24-well plates at a density of 3–7 × 10^5 cells/well 24 h before the experiment. Then, 24 h later, the medium in each well was replaced by the same medium with 1 µM of LL-37 for the sample wells or fresh medium alone for the control wells, and the permeable inserts with the Caco-2 monolayer with TEER > 400 Ω × cm^2, containing 400 μL of the complete medium in their apical chamber, were immediately placed into the appropriate wells. Also, inserts with the Caco-2 monolayer were placed in cell-free wells of 24-well plates in the same complete RPMI-1640 medium with or without 1 µM of LL-37 as controls. Cells were kept in a CO2-incubator (5% CO2, 37 °C) for another 24 h. Then, culture medium from each well was collected, centrifuged, and frozen at −70 °C.
To quantitatively evaluate a broad spectrum of analytes secreted by human cell cultures at the protein level, multiplex xMAP technology was used. […]

Work on “LL-37: the only human cathelicidin, host defense antimicrobial peptide of 37 a.a. residues, produced by solid-phase peptide synthesis” yielded an IL-18 level (control 0.74) of 0.52 pg/mL, an MDC level (control 1.37) of 0.58 pg/mL and an IL-2 level (control 1.49) of 1.16 pg/mL. It also gave an IL-6 level (control 1.7) of 1.09 pg/mL, an FLT-3L level (control 2.11) of 1.96 pg/mL and an IL-8 level (control 3.74) of 5.93 pg/mL. For the same substance, the IFNa2 level (control 4) was <3.88↓ pg/ml, the IL-4 level (control 4.85) was 6.05 pg/mL and the IL-9 level (control 5.8) was 5.8 pg/mL. For the same substance, the IFNg level (control 6.08) was 5.17 pg/mL, the MCP-3 level (control 7.84) was 7.84 pg/mL and the IL-1a level (control 9.17) was 10.05 pg/mL. For the same substance, the TNFb level (control 12.53) was 16.33 pg/mL, the TNFa level (control 15.69) was 16.61 pg/mL and the sCD40L level (control 23.6) was 23.6 pg/mL. The IL-22 level (control 27.2, p = 0.093) was 34 pg/mL and 34.37 pg/mL, the PDGF-AB/BB level (control 29.35) was 41.49 pg/mL and the GROa level (control 30.74) was 50.06 pg/mL. The FGF-2 level (control 35.81) was 41.88 pg/mL, the IL-27 level (control 35.81) was 51.37 pg/mL and the MIP-1b level (control 36.43) was 42.84 pg/mL. The MIG level (control 53.25) was 70 pg/mL, the M-GSF level (control 55.64) was 47.83 pg/mL and the GM-CSF level (control 69.7) was 65.72 pg/mL. For the same substance, the IP-10 level (control 141.7) was 206.59 pg/mL, the IL-13 level (control 179.71) was 178.25 pg/mL and the PDGF-AA level (control 200.08) was 182.58 pg/mL. It also gave an IL-5 level (control 246.49) of 258.81 pg/mL, an MIP-1a level (control 399.48) of 471.29 pg/mL and an RANTES level (control 718.58) of 908.6 pg/mL. The VEGFa level (control 951.17) was 1907 pg/mL, the IL-7 level (control <0.30) was <0.30↓ pg/ml and the IL-3 level (control <0.55) was <0.55↓ pg/ml. For the same substance, the TGF-a level (control <0.68) was <0.68↓ pg/ml, the IL-17A level (control <0.70) was <0.70↓ pg/ml and the IL-1b level (control <0.74) was <0.74↓ pg/ml. For the same substance, the IL-1RA level (control <0.93) was <0.93↓ pg/ml, the IL-10 level (control <1.35) was <1.35↓ pg/ml and the MCP-1 level (control <1.35) was 2.13 pg/mL. For the same substance, the IL-15 level (control <1.54) was <1.54↓ pg/ml, the EGF level (control <1.60) was 2.26 pg/mL and the “IL-12 (p70) level” value (control <1.71) was <1.71↓ pg/ml. The G-CSF level (control <2.32) was <2.32↓ pg/ml, the Eotaxin level (control <2.91) was <2.91↓ pg/ml and the “IL-12 (p40) level” value (control <3.33) was <3.33↓ pg/ml. The IL-17F level (control <12.19) was <12.19↓ pg/ml, the Fractalkine level (control <18.09) was 19.78 pg/mL and the IL-17E/IL-25 level (control <19.43) was <19.43↓ pg/ml.
